Key:
[1] = test system: E. coli NDM-1 strain; assay: microbe, parasite or virus in culture; assay type: cell-based; details: for MIC: Escherichia coli, NDM1STRAIN, read-out: NDM-1 MICs, Tested; for NDM-1 MICs, Tested: for piperacillin-tazobactam the piperacillin concentration
[2] = test system: Klebsiella pneumoniae NDM-1 clinical isolate; details: original Klebsiella pneumoniae NDM-1 isolate; cited from earlier work
[3] = test system: aTc-inducible pLtetO promoters; assay: aTc induction of GFP/mCherry pairwise combinations; assay type: cell-based, E. coli; details: DH5a colonies, increasing concentrations of aTc
Text: Next, to test gene expression, a barcoded vector library of GFP and mCherry was constructed under the control of aTc-inducible pLtetO promoters with a T1+T7 fusion terminator downstream of each ORF. Each vector contained the high-copy ColE1 origin, tetR under control of a constitutive promoter, and cat conferring chloramphenicol resistance.
An insert library was generated via PCR, creating a pairwise combinatorial set as in FIG. 5 that was then transformed into DH5a cells. Twenty-four colonies were isolated and grown in increasing concentrations of aTc along with positive and negative controls (FIG. 7).

[4] = test system: Tet-ON expression system (rtTA); assay: Tet-ON induction tested with fluorescent proteins (eGFP, mCherry); assay type: cell-based; details: yeast strains with integrated rtTA
Text: (§1) The repetitive Aβ or αSyn expression array was integrated in yeast genome (the W303 background) and controlled by galactose induction. FIG. 28 depicts a yeast strain generated by integrating multiple tandem copies of αSyn with a galactose (Gal)-inducible promoter. In order to minimize the size of plasmid backbone for library construction, the reverse tetracycline transactivator (rtTA), part of the Tet-ON expression system (Gossen, M. et al., Science […]:1766-9 (1995)), was integrated into both yeast strains. The Tet-ON induction was tested by using different fluorescent proteins (such as eGFP and mCherry), and consistently detected robust gene activation (about 50-fold increase) with doxycycline (Dox) treatment. […] Similarly, the rtTA was successfully integrated in wild-type strain (the BY4741 background) to study longevity.

[5] = test system: yeast strains (Aβ or αSyn expression array, W303 background); assay: Cell growth and inducible amyloid toxicity of yeast model strains; assay type: cell-based; details: yeast strains with integrated rtTA
Text: as §1

Compound	MIC [1] [µg/mL]	NDM-1 MICs, Previously Reported [2] [µg/mL]	NDM-1 MICs, Tested ([1]; E. coli NDM-1) [µg/mL]	further results
CC1(C)S[C@@H]2[C@H](NC(=O)[C@H](N)c3ccc(O)cc3)C(=O)N2[C@H]1C(=O)O [Amoxicillin]	> 512	–	–	–
CO/N=C(\C(=O)N[C@@H]1C(=O)N2C(C(=O)O)=C(CSc3nc(=O)c(=O)[nH]n3C)CS[C@H]12)c1csc(N)n1 [Ceftriaxone]	> 128	>32	–	–
C[C@@H](O)[C@H]1C(=O)N2C(C(=O)O)=C(SCCN=CN)C[C@H]12 [Imipenem]	> 32	–	–	–
Cc1c2c(c(O)c3c(O)cccc13)C(=O)[C@]1(O)C(O)=C(C(N)=O)C(=O)[C@@H](N(C)C)[C@@H]1C2 [aTc]	–	–	–	on/off ratios of induction [3]: 150-300 x
C[C@H]1c2cccc(O)c2C(=O)C2=C(O)[C@]3(O)C(=O)C(C(N)=O)=C(O)[C@@H](N(C)C)[C@@H]3[C@@H](O)[C@@H]21 [doxycycline]	–	–	–	Gene activation (Tet-ON induction) [4]: about 50 fold; Effect on cell growth or inducible amyloid toxicity [5]: neither the integrated rtTA nor the Dox treatment affects cell growth or the inducible amyloid toxicity
Colistin	–	0.25	<0.125	–
Gentamicin	–	>10	>256	–
Piperacillin-Tazobactam	–	>128	> 256	NDM-1 MICs, Tested, tazobactam concentration ([1]; E. coli NDM-1, tazobactam part of piperacillin-tazobactam): 32 µg/mL

Source: patent US9315806B2, “Massively parallel combinatorial genetics” (Massachusetts Institute of Technology, priority 2012, dated 2016)
